Measured values reported in ChEMBL document CHEMBL1909046, “DrugMatrix in vitro pharmacology data”.

How the values were obtained:
Carbonic anhydrase 2 = Carbonic anhydrase 2 (Homo sapiens, UniProt P00918); assay: DRUGMATRIX: Carbonic Anhydrase II enzyme inhibition (substrate: 4-Nitrophenyl acetate (4-NPA)); assay type: tissue-based, Erythrocyte; details: Not Active = under 50% inhibition at 10 µM
[1] = molecular target: T1, C-X-C chemokine receptor type 1 (Homo sapiens, UniProt P25024); further: in other assays of this panel Not Active means under 50% inhibition at 10 µM
T1 sequence (P25024 whole entry): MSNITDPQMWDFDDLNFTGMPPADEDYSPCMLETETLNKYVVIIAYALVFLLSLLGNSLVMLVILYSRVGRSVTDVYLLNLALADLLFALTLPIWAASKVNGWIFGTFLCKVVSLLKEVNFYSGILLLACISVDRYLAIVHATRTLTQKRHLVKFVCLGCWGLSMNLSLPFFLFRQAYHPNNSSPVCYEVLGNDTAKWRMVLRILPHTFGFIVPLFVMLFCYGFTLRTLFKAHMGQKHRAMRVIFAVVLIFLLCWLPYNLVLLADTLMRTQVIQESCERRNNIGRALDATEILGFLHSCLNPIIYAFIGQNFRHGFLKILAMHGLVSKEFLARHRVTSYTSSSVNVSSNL

[2] = molecular target: Tyrosine-protein kinase Lck (Homo sapiens, UniProt P06239); assay: DRUGMATRIX: Protein Tyrosine Kinase, LCK enzyme inhibition (substrate: Poly(Glu:Tyr)); assay type: cell-based, Insect cells; details: insect cells; Not Active = under 50% inhibition at 10 µM
Tyrosine-protein kinase Lck, sequence (P06239 whole entry): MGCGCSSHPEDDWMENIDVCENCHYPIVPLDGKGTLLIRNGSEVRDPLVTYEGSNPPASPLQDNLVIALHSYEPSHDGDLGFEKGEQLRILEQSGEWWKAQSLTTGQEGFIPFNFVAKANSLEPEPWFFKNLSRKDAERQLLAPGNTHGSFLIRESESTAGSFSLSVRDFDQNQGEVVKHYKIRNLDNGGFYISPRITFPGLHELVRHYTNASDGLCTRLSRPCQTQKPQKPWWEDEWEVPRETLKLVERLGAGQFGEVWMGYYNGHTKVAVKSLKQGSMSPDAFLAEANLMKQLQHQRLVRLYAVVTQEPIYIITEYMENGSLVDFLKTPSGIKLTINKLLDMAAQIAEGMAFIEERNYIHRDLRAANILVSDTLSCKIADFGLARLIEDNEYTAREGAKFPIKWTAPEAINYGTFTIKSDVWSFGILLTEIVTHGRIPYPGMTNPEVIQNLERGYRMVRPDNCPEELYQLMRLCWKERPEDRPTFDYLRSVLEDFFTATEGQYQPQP

[3] = molecular target: T2, Neuropeptide Y receptor type 1 (Homo sapiens, UniProt P25929); assay type: cell membranes, Membrane; details: sk-n-mc; further: in other assays of this panel Not Active means under 50% inhibition at 10 µM
T2 sequence (P25929 whole entry): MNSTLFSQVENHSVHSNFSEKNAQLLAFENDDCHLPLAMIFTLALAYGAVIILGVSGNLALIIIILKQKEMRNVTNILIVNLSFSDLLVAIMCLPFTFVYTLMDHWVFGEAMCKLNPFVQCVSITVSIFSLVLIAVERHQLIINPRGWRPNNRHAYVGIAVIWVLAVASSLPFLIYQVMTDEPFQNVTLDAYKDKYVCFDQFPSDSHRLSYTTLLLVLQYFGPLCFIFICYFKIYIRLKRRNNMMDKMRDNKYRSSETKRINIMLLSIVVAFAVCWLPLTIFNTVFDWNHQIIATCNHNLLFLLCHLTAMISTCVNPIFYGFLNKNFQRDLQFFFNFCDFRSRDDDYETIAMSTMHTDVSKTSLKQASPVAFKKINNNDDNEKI

[4] = DRUGMATRIX: GABAA, Flunitrazepam, Central radioligand binding (ligand: [3H] Flunitrazepam); assay type: cell membranes, Rattus norvegicus, Wistar, Brain, Membrane; details: Not Active = under 50% inhibition at 10 µM
[5] = molecular target: T3, Neuropeptide Y receptor type 2 (Homo sapiens, UniProt P49146); assay type: cell membranes, Membrane; details: kan-ts; further: in other assays of this panel Not Active means under 50% inhibition at 10 µM
T3 sequence (P49146 whole entry): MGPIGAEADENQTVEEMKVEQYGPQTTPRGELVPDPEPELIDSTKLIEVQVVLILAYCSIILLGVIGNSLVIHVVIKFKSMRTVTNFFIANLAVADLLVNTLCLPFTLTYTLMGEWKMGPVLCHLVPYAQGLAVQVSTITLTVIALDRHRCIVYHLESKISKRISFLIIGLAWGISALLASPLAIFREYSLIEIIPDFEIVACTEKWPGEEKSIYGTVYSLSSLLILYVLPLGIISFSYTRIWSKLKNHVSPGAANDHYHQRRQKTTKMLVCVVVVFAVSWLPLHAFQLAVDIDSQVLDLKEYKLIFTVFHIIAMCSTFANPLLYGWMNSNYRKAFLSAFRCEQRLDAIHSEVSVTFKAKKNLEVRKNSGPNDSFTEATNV

[6] = molecular target: C-C chemokine receptor type 5 (Homo sapiens, UniProt P51681); assay type: cell membranes, Membrane; details: hek293; further: in other assays of this panel Not Active means under 50% inhibition at 10 µM
C-C chemokine receptor type 5, sequence (P51681 whole entry): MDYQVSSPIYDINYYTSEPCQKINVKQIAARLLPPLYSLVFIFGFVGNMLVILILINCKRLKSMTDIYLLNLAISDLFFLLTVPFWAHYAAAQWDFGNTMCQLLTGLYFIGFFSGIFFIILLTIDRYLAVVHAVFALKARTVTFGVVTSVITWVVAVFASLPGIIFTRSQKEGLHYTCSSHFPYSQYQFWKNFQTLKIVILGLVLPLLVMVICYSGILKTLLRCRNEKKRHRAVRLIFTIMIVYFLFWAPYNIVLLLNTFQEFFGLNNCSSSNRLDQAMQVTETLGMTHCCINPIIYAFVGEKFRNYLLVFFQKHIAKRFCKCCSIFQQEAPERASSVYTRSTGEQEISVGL

[7] = molecular target: T4, Type-2 angiotensin II receptor (Homo sapiens, UniProt P50052); assay: biochemical; assay type: cell-based, CHO-K1; details: cho-k1; further: in other assays of this panel Not Active means under 50% inhibition at 10 µM
T4 sequence (P50052 whole entry): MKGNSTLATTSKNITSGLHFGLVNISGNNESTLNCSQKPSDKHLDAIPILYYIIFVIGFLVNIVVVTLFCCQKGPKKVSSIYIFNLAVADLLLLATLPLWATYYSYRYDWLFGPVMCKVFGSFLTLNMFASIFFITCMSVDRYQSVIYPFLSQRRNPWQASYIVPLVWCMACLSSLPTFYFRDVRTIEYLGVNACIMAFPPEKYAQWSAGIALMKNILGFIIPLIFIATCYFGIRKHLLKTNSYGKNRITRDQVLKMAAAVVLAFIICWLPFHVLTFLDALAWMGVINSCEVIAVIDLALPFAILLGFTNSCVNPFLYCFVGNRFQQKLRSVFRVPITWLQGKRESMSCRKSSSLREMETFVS

Structure (SMILES) | IC50 (Carbonic anhydrase 2; erythrocyte) | IC50 [1] | IC50 [2] | IC50 [3] | IC50 [4] | Ki [4] | IC50 [5] | IC50 [6] | IC50 [7] | IC50 (Carbonic anhydrase 2; read-out: IC50) [nM] | IC50 ([4]; read-out: IC50) [nM] | Ki ([4]; read-out: Ki) [nM]
C[S+](C)[O-] [DIMETHYL SULFOXIDE] | Not Active | Not Active | Not Active | Not Active | Not Active | Not Active | Not Active | Not Active | Not Active | – | – | –
O=C(c1ccccc1F)N1CCC(Cc2ccccc2)CC1 | Not Active | Not Active | Not Active | Not Active | Not Active | Not Active | Not Active | Not Active | Not Active | – | – | –
COc1cc(OC)c(C(=O)CCCN2CCCC2)c(OC)c1 [BUFLOMEDIL] | Not Active | Not Active | Not Active | Not Active | Not Active | Not Active | Not Active | Not Active | Not Active | – | – | –
COC(=O)Nc1nc2cc(C(=O)c3ccc(F)cc3)ccc2[nH]1 [FLUBENDAZOLE] | Not Active | Not Active | Not Active | Not Active | Not Active | Not Active | Not Active | Not Active | Not Active | – | – | –
COc1ccnc(C[S+]([O-])c2nc3ccc(OC(F)F)cc3[nH]2)c1OC (centres undefined) [PANTOPRAZOLE] | Not Active | Not Active | Not Active | Not Active | Not Active | Not Active | Not Active | Not Active | Not Active | – | – | –
CCc1ccc(CCOc2ccc(CC3SC(=O)NC3=O)cc2)nc1 (centres undefined) [PIOGLITAZONE] | – | Not Active | Not Active | Not Active | Not Active | Not Active | Not Active | Not Active | Not Active | 114 | – | –
CC[C@H]1[C@@H]2C[C@H]3[C@@H]4N(C)c5ccccc5[C@]45C[C@@H]([C@@H]2[C@H]5O)N3[C@@H]1O [AJMALINE] | Not Active | Not Active | Not Active | Not Active | Not Active | Not Active | Not Active | Not Active | Not Active | – | – | –
CNC1=Nc2ccc(Cl)cc2C(c2ccccc2)=[N+]([O-])C1 [CHLORDIAZEPOXIDE] | Not Active | Not Active | Not Active | Not Active | – | – | Not Active | Not Active | Not Active | – | 1430 | 1160
C[C@@H]1O[C@@H](O[C@H]2C[C@@H](O)[C@]3(CO)[C@H]4[C@H](O)C[C@]5(C)[C@@H](C6=CC(=O)OC6)CC[C@]5(O)[C@@H]4CC[C@]3(O)C2)[C@H](O)[C@H](O)[C@H]1O [OUABAIN] | Not Active | Not Active | Not Active | Not Active | Not Active | Not Active | Not Active | Not Active | Not Active | – | – | –
Cc1cccc(C)c1NC(=O)C1CCCCN1C (centres undefined) [MEPIVACAINE] | Not Active | Not Active | Not Active | Not Active | Not Active | Not Active | Not Active | Not Active | Not Active | – | – | –
CC1=NN(c2ccccc2)C(=O)C1 [EDARAVONE] | Not Active | Not Active | Not Active | Not Active | Not Active | Not Active | Not Active | Not Active | Not Active | – | – | –
